Measured values published in ChEMBL document CHEMBL1201862, “PubChem BioAssay data set” (2004).
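96-well plates; 48 h exposure; 5 concentrations. Endpoints by linear interpolation between flanking doses. Not reached: highest tested concentration assigned. At the GI50, growth is halved.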 Active and inactive are the calls of the source. Cut-off read from the data, not from the text of the source: active = GI50 up to about 1.1 µM and inactive = higher.

What was measured:
Assay in all cases: NCI-60 cell line screen, 48 h
OVCAR-5 = test system: OVCAR-5
786-0 = test system: 786-0
MDA-N = test system: MDA-N
SK-MEL-28 = test system: SK-MEL-28
ACHN = test system: ACHN
SK-MEL-2 = test system: SK-MEL-2
HL-60 = test system: HL-60
SK-MEL-5 = test system: SK-MEL-5
U-251 = test system: U-251
M14 = test system: M14
HOP-62 = test system: HOP-62
UO-31 = test system: UO-31
OVCAR-8 = test system: OVCAR-8
DU-145 = test system: DU-145
NCI-H226 = test system: NCI-H226
KM12 = test system: KM12
OVCAR-3 = test system: OVCAR-3
SR = test system: SR
TK-10 = test system: TK-10
RPMI-8226 = test system: RPMI-8226

Row | Compound | GI50 (OVCAR-5) | GI50 (786-0) | GI50 (MDA-N) | GI50 (SK-MEL-28) | GI50 (ACHN) | GI50 (SK-MEL-2) | GI50 (HL-60) | GI50 (SK-MEL-5) | GI50 (U-251) | GI50 (M14) | GI50 (HOP-62) | GI50 (UO-31) | GI50 (OVCAR-8) | GI50 (DU-145) | GI50 (NCI-H226) | GI50 (KM12) | GI50 (OVCAR-3) | GI50 (SR) | GI50 (TK-10) | GI50 (RPMI-8226)
1 | COc1cc(C2SC(C)C(=O)N2c2ccc(-c3csc(NS(=O)(=O)c4ccc(Cl)c(OC)c4)n3)cc2)ccc1O (stereo unspecified) | > 100 µM (inactive) | 67.3 µM (inactive) | 41.2 µM (inactive) | > 100 µM (inactive) | > 100 µM (inactive) | 48.5 µM (inactive) | 48.2 µM (inactive) | > 100 µM (inactive) | 46.5 µM (inactive) | > 100 µM (inactive) | > 100 µM (inactive) | > 100 µM (inactive) | 29.7 µM (inactive) | > 100 µM (inactive) | > 100 µM (inactive) | 22.5 µM (inactive) | 56.4 µM (inactive) | 23.9 µM (inactive) | > 100 µM (inactive) | 
2 | C[n+]1c(-c2ccc(/C=N\Nc3ccnc(N/N=C/c4ccc(-c5cn6ccsc6[n+]5C)cc4)n3)cc2)cn2ccsc21 | 16.7 µM (inactive) | 10.9 µM (inactive) | 2.96 µM (inactive) |  | 32.5 µM (inactive) |  | 24.2 µM (inactive) | 10.6 µM (inactive) | 32.6 µM (inactive) | 4.95 µM (inactive) | 18.1 µM (inactive) | 20 µM (inactive) | 27.4 µM (inactive) | 27.8 µM (inactive) | 16.4 µM (inactive) | 15.8 µM (inactive) | > 100 µM (inactive) | 12.6 µM (inactive) | 20.3 µM (inactive) | 4.65 µM (inactive)
3 | C=CCSC1=N/C(=C\c2ccc(Cl)cc2)C(=O)N1CC=C | 63.8 µM (inactive) | 35.7 µM (inactive) | 32.7 µM (inactive) | 50.2 µM (inactive) | 32.6 µM (inactive) | 27.7 µM (inactive) | 9.35 µM (inactive) | 16.1 µM (inactive) | 22 µM (inactive) | 66.2 µM (inactive) | 41.9 µM (inactive) | 34.7 µM (inactive) | 47.2 µM (inactive) | 20.5 µM (inactive) |  | 24.9 µM (inactive) | 43.7 µM (inactive) | 27.4 µM (inactive) | 55.7 µM (inactive) | 17.4 µM (inactive)
4 | C=C1CC2(C)CCC(OC(=O)C3(C)OC3C)C(C)(OC(C)=O)C2CC1=C(C)C (stereo unspecified) | > 100 µM (inactive) | > 10 µM (inactive) | > 100 µM (inactive) | > 100 µM (inactive) | > 100 µM (inactive) | > 100 µM (inactive) | 24.9 µM (inactive) | > 100 µM (inactive) | > 100 µM (inactive) | > 100 µM (inactive) | > 100 µM (inactive) | > 100 µM (inactive) | > 100 µM (inactive) | > 100 µM (inactive) |  | > 100 µM (inactive) | > 100 µM (inactive) | > 100 µM (inactive) | > 100 µM (inactive) | > 100 µM (inactive)
5 | COc1ccc2c(c1)-c1c(c3ccccc3n1CCN1CCOCC1)CC2 | 35.2 µM (inactive) | 22.6 µM (inactive) | 36.7 µM (inactive) | 55.1 µM (inactive) | 35.7 µM (inactive) | 11 µM (inactive) |  | 14.5 µM (inactive) | 26 µM (inactive) | 35 µM (inactive) | 20.1 µM (inactive) | 22.6 µM (inactive) | 16 µM (inactive) | 58.9 µM (inactive) | 11.7 µM (inactive) | 11.5 µM (inactive) | 18.2 µM (inactive) | 19.1 µM (inactive) | 0.0363 µM (active) | 19.4 µM (inactive)
6 | COc1cc(C2c3cc4c(cc3[C@@H](Nc3ccc(N)cc3)C3COC(=O)[C@H]23)OCO4)cc(OC)c1O (stereo partly specified) | 4.08 µM (inactive) | 0.908 µM (active) | 3.93 µM (inactive) | 6.76 µM (inactive) | 1.25 µM (inactive) | 5.73 µM (inactive) |  | 0.918 µM (active) | 0.401 µM (active) | 1.31 µM (inactive) | 0.363 µM (active) | 1.34 µM (inactive) | 2.22 µM (inactive) | 0.121 µM (active) | 1.19 µM (inactive) | 3.43 µM (inactive) | 6.1 µM (inactive) | 0.205 µM (active) | 3.64 µM (inactive) | 0.425 µM (active)
7 | CCCOC(=O)NC(C)C(=O)NC(CCC(=O)NC(CCCC(N)C(=O)O)C(=O)NC(C)C(=O)O)C(=O)O (stereo unspecified) | 41.9 µM (inactive) | 30.2 µM (inactive) | 21.1 µM (inactive) | 19.4 µM (inactive) | 42.9 µM (inactive) | 54.2 µM (inactive) | 24.8 µM (inactive) | 15.7 µM (inactive) | 25.5 µM (inactive) | 18.3 µM (inactive) | > 100 µM (inactive) | 41.8 µM (inactive) | 17.9 µM (inactive) | 24.4 µM (inactive) |  | 14.4 µM (inactive) | 80.9 µM (inactive) | 15.6 µM (inactive) | 69.8 µM (inactive) | 12.3 µM (inactive)
8 | CC1(C)CCC[C@](C)([C@H]2CC[C@]3(C)[C@@H]2[C@H](O)C[C@@H]2[C@@]4(C)CC[C@H](O)C(C)(C)[C@@H]4[C@H](O)C[C@]23C)O1 | 20.1 µM (inactive) | 19 µM (inactive) | 13.5 µM (inactive) | 11.9 µM (inactive) | 12.1 µM (inactive) | 13 µM (inactive) | 2.16 µM (inactive) | 3.64 µM (inactive) | 12.3 µM (inactive) | 14.9 µM (inactive) |  | 11.7 µM (inactive) | 16.9 µM (inactive) | 15.8 µM (inactive) | 15.7 µM (inactive) | 11.1 µM (inactive) |  | 5.31 µM (inactive) | 11.3 µM (inactive) | 
9 | COC1CC(N)C(O)C(C)O1 (stereo unspecified) | > 100 µM (inactive) | > 100 µM (inactive) | > 100 µM (inactive) | > 100 µM (inactive) | > 100 µM (inactive) |  | > 100 µM (inactive) | > 100 µM (inactive) | > 100 µM (inactive) | > 100 µM (inactive) | > 100 µM (inactive) | > 100 µM (inactive) | > 100 µM (inactive) | > 100 µM (inactive) | > 100 µM (inactive) | > 100 µM (inactive) | > 100 µM (inactive) | > 100 µM (inactive) |  | > 100 µM (inactive)
10 | O=[N+]([O-])C(=C(N1CCCCC1)N1CCCCC1)/C(Cl)=C(\Cl)[N+](=O)[O-] | 17.9 µM (inactive) | 3.42 µM (inactive) | 5.94 µM (inactive) | 16.8 µM (inactive) | 3.27 µM (inactive) | 16.9 µM (inactive) |  | 5.69 µM (inactive) | 18.7 µM (inactive) | 8.47 µM (inactive) | 15.6 µM (inactive) | 3.54 µM (inactive) | 10.9 µM (inactive) | 2.88 µM (inactive) | 20.6 µM (inactive) | 19.4 µM (inactive) | 3.79 µM (inactive) | 2.19 µM (inactive) | 5.41 µM (inactive) | 2.18 µM (inactive)
